Measurements taken from PMC10902354, “Deficiency in PHD2-mediated hydroxylation of HIF2α underlies Pacak-Zhuang syndrome” (Communications Biology, 2024).

System: hypoxia-responsive element (HRE) reporter, HEK293A cells
Assay: Dual-luciferase reporter assay of HIF2α transcriptional activity (VEGFA-HRE) in HEK293A cells
Type: cell-based
Conditions: for HIF2α transcriptional activity, Firefly(RLU)/Renilla(RLU) (Normalized To WT Mean): Fig. 6a, normal oxygenated conditions; for HIF2α transcriptional activity, Firefly(RLU)/Renilla(RLU) (Normalized to WT Mean): Fig. 6b; for HIF2α transcriptional activity, Firefly(RLU)/Renilla(RLU) (Normalized to WT Mean) / HRE-driven transcriptional activity (in words): normoxic conditions; for HRE-driven transcriptional activity (in words): relative to HIF2α WT or other mutant
Text: The following previously described plasmids were used in this study: pcDNA3-HA-VHL30[28] and pET-46-HIS6-PHD2[4]. pGL3-VEGFA-HRE was generated by amplifying nucleotides 1271-1797 of human VEGFA CDS (AH001553.2) using primers introducing 5’ KpnI and 3’ XhoI sites; digested PCR products were subcloned into pGL3-Basic (Promega) cut with KpnI and XhoI. pRL-SV40 was obtained from Promega. pcDNA3-HA-HIF2α has been previously described. Class 1 (D539N, A530V, P531A, Y532C) and Class 2 (M535T, G537R, P534R, Y532H) HIF2α mutants, as well as mutant P405A, were generated using QuikChange site-directed mutagenesis (Agilent) and confirmed by DNA sequencing. pcDNA3-HA-HIF2α -P405A/P531A was obtained from Addgene (Addgene plasmid # 18956)[29]. The α-HA tag antibody was obtained from Cell Signaling (C29F4). HIFα-CODD peptides were custom synthesized by Genscript and supplied at ≥ 95% purity. All synthesized peptides were C-terminally amidated, peptides used for MST binding studies and crystallography were N-terminally acetylated and peptides used for the indirect hydroxylation assays were N-terminally biotinylated. For crystallography and MST experiments peptides were dissolved directly into 50 mM Tris pH 8.0 buffer and for indirect hydroxylation assays N-terminally biotinylated peptides were initially dissolved in DMSO to create stock solutions and further diluted into aqueous buffers for immobilization on streptavidin agarose beads. The sequences of each peptide can be found in Supplementary Table 1.
HEK293A cells were maintained in DMEM (Wisent #319-015) supplemented with 10% (v/v) Fetal Bovine Serum (FBS, Wisent #098-150) in a humidified atmosphere at 37 °C and 5% CO2. Transfection complexes containing 2 μg of total DNA (0.8 ug pcDNA3-HA, 0.9 μg pGL3-VEGFa-HRE, 0.1 μg pRL-SV40, and 0.2 μg of either pcDNA3-HA-HIF2α-WT or mutant) and 8 ug Polyethyleneimine pH 7.2 (Polysciences, Cat #23966) in 400 μl OptiMEM™ Reduced Serum Medium (Gibco #31985070) were incubated for 15 min at room temperature, then were added to 5 × 10^5 HEK293A cells (diluted in 400 μl OptiMEM™) and incubated for an additional 5 min. Mixture was plated in six-well plates containing 2 ml complete medium and incubated at 37 °C, 5% CO2 for 24 h. Firefly luciferase and Renilla luciferase activity were measured with the Dual-Luciferase Reporter Assay System (Promega #E1960) according to the manufacturer’s instructions. Measurements (1 s) were recorded using a Varioskan Lux microplate reader (Thermo Fisher Scientific). For each sample, firefly RLU values were divided by corresponding Renilla RLU values.

HIF2a-A530V: Class 1 HIF2α mutant expressed from plasmid in HEK293A cells
HIF2α transcriptional activity, Firefly(RLU)/Renilla(RLU) (Normalized To WT Mean) (Exp 1, 24 h): 2.033 | HIF2α transcriptional activity, Firefly(RLU)/Renilla(RLU) (Normalized To WT Mean) (Exp 2, 24 h): 1.3534 | HIF2α transcriptional activity, Firefly(RLU)/Renilla(RLU) (Normalized To WT Mean) (Exp 3, 24 h): 1.897 | HIF2α transcriptional activity, Firefly(RLU)/Renilla(RLU) (Normalized To WT Mean) (Exp 4, 24 h): 3.054 | HIF2α transcriptional activity, Firefly(RLU)/Renilla(RLU) (Normalized To WT Mean) (Exp 5, 24 h): 1.561 | HIF2α transcriptional activity, Firefly(RLU)/Renilla(RLU) (Normalized To WT Mean) (mean of Exp 1-5, 24 h): 1.98

HIF2a-D539N: Class 1 HIF2α mutant expressed from plasmid in HEK293A cells
HIF2α transcriptional activity, Firefly(RLU)/Renilla(RLU) (Normalized To WT Mean) (Exp 1, 24 h): 2.166 | HIF2α transcriptional activity, Firefly(RLU)/Renilla(RLU) (Normalized To WT Mean) (Exp 2, 24 h): 1.679 | HIF2α transcriptional activity, Firefly(RLU)/Renilla(RLU) (Normalized To WT Mean) (Exp 3, 24 h): 1.625 | HIF2α transcriptional activity, Firefly(RLU)/Renilla(RLU) (Normalized To WT Mean) (Exp 4, 24 h): 2.569 | HIF2α transcriptional activity, Firefly(RLU)/Renilla(RLU) (Normalized To WT Mean) (Exp 5, 24 h): 1.2135 | HIF2α transcriptional activity, Firefly(RLU)/Renilla(RLU) (Normalized To WT Mean) (mean of Exp 1-5, 24 h): 1.85

HIF2a-G537R: Class 2 HIF2α mutant expressed from plasmid in HEK293A cells
HIF2α transcriptional activity, Firefly(RLU)/Renilla(RLU) (Normalized To WT Mean) (Exp 1, 24 h): 1.297 | HIF2α transcriptional activity, Firefly(RLU)/Renilla(RLU) (Normalized To WT Mean) (Exp 2, 24 h): 1.639 | HIF2α transcriptional activity, Firefly(RLU)/Renilla(RLU) (Normalized To WT Mean) (Exp 3, 24 h): 0.7606 | HIF2α transcriptional activity, Firefly(RLU)/Renilla(RLU) (Normalized To WT Mean) (Exp 4, 24 h): 1.668 | HIF2α transcriptional activity, Firefly(RLU)/Renilla(RLU) (Normalized To WT Mean) (Exp 5, 24 h): 0.917 | HIF2α transcriptional activity, Firefly(RLU)/Renilla(RLU) (Normalized To WT Mean) (mean of Exp 1-5, 24 h): 1.256

HIF2a-M535T: Class 2 HIF2α mutant expressed from plasmid in HEK293A cells
HIF2α transcriptional activity, Firefly(RLU)/Renilla(RLU) (Normalized To WT Mean) (Exp 1, 24 h): 1.412 | HIF2α transcriptional activity, Firefly(RLU)/Renilla(RLU) (Normalized To WT Mean) (Exp 2, 24 h): 1.394 | HIF2α transcriptional activity, Firefly(RLU)/Renilla(RLU) (Normalized To WT Mean) (Exp 3, 24 h): 0.5168 | HIF2α transcriptional activity, Firefly(RLU)/Renilla(RLU) (Normalized To WT Mean) (Exp 4, 24 h): 1.444 | HIF2α transcriptional activity, Firefly(RLU)/Renilla(RLU) (Normalized To WT Mean) (Exp 5, 24 h): 0.9762 | HIF2α transcriptional activity, Firefly(RLU)/Renilla(RLU) (Normalized To WT Mean) (mean of Exp 1-5, 24 h): 1.149

HIF2a-P405A/P531A: HIF2α NODD and CODD site double mutant (Addgene plasmid 18956)
HIF2α transcriptional activity, Firefly(RLU)/Renilla(RLU) (Normalized to WT Mean) (Exp 1, 24 h): 1.594 | HIF2α transcriptional activity, Firefly(RLU)/Renilla(RLU) (Normalized to WT Mean) (Exp 2, 24 h): 4.627 | HIF2α transcriptional activity, Firefly(RLU)/Renilla(RLU) (Normalized to WT Mean) (Exp3, 24 h): 2.493 | HIF2α transcriptional activity, Firefly(RLU)/Renilla(RLU) (Normalized to WT Mean) (mean of Exp 1-3, 24 h): 2.905 | HRE-driven transcriptional activity (in words) (listed as HIF2αP405A/P531A): indistinguishable transcriptional activity from HIF2αP531A single mutant

HIF2a-P405A: HIF2α NODD site mutant expressed from plasmid in HEK293A cells
HIF2α transcriptional activity, Firefly(RLU)/Renilla(RLU) (Normalized to WT Mean) (Exp 1, 24 h): 0.6521 | HIF2α transcriptional activity, Firefly(RLU)/Renilla(RLU) (Normalized to WT Mean) (Exp 2, 24 h): 1.374 | HIF2α transcriptional activity, Firefly(RLU)/Renilla(RLU) (Normalized to WT Mean) (Exp3, 24 h): 0.7703 | HIF2α transcriptional activity, Firefly(RLU)/Renilla(RLU) (Normalized to WT Mean) (mean of Exp 1-3, 24 h): 0.9323 | HRE-driven transcriptional activity (in words) (listed as P405A mutant): transcriptional activity comparable to wild-type HIF2α | HRE-driven transcriptional activity (in words) (listed as P405A mutation): no significant increase in HIF2α transcriptional activation activity

HIF2a-P531A: Class 1 HIF2α mutant (CODD site mutant) expressed from plasmid in HEK293A cells
HIF2α transcriptional activity, Firefly(RLU)/Renilla(RLU) (Normalized To WT Mean) (Exp 1, 24 h): 2.696 | HIF2α transcriptional activity, Firefly(RLU)/Renilla(RLU) (Normalized To WT Mean) (Exp 2, 24 h): 2.508 | HIF2α transcriptional activity, Firefly(RLU)/Renilla(RLU) (Normalized To WT Mean) (Exp 3, 24 h): 2.211 | HIF2α transcriptional activity, Firefly(RLU)/Renilla(RLU) (Normalized To WT Mean) (Exp 4, 24 h): 4.182 | HIF2α transcriptional activity, Firefly(RLU)/Renilla(RLU) (Normalized To WT Mean) (Exp 5, 24 h): 1.7617 | HIF2α transcriptional activity, Firefly(RLU)/Renilla(RLU) (Normalized To WT Mean) (mean of Exp 1-5, 24 h): 2.672 | HIF2α transcriptional activity, Firefly(RLU)/Renilla(RLU) (Normalized to WT Mean) (Exp 1, 24 h): 2.003 | HIF2α transcriptional activity, Firefly(RLU)/Renilla(RLU) (Normalized to WT Mean) (Exp 2, 24 h): 3.782 | HIF2α transcriptional activity, Firefly(RLU)/Renilla(RLU) (Normalized to WT Mean) (Exp3, 24 h): 2.069 | HIF2α transcriptional activity, Firefly(RLU)/Renilla(RLU) (Normalized to WT Mean) (mean of Exp 1-3, 24 h): 2.618

HIF2a-P534R: Class 2 HIF2α mutant expressed from plasmid in HEK293A cells
HIF2α transcriptional activity, Firefly(RLU)/Renilla(RLU) (Normalized To WT Mean) (Exp 1, 24 h): 1.1133 | HIF2α transcriptional activity, Firefly(RLU)/Renilla(RLU) (Normalized To WT Mean) (Exp 2, 24 h): 1.547 | HIF2α transcriptional activity, Firefly(RLU)/Renilla(RLU) (Normalized To WT Mean) (Exp 3, 24 h): 1.102 | HIF2α transcriptional activity, Firefly(RLU)/Renilla(RLU) (Normalized To WT Mean) (Exp 4, 24 h): 1.425 | HIF2α transcriptional activity, Firefly(RLU)/Renilla(RLU) (Normalized To WT Mean) (Exp 5, 24 h): 0.8617 | HIF2α transcriptional activity, Firefly(RLU)/Renilla(RLU) (Normalized To WT Mean) (mean of Exp 1-5, 24 h): 1.21

HIF2a-WT: HA-HIF2α WT expressed from pcDNA3-HA-HIF2α in HEK293A cells
HIF2α transcriptional activity, Firefly(RLU)/Renilla(RLU) (Normalized To WT Mean) (Exp 1, 24 h): 1.095 | HIF2α transcriptional activity, Firefly(RLU)/Renilla(RLU) (Normalized To WT Mean) (Exp 2, 24 h): 1.349 | HIF2α transcriptional activity, Firefly(RLU)/Renilla(RLU) (Normalized To WT Mean) (Exp 3, 24 h): 0.5003 | HIF2α transcriptional activity, Firefly(RLU)/Renilla(RLU) (Normalized To WT Mean) (Exp 4, 24 h): 1.339 | HIF2α transcriptional activity, Firefly(RLU)/Renilla(RLU) (Normalized To WT Mean) (Exp 5, 24 h): 0.7176 | HIF2α transcriptional activity, Firefly(RLU)/Renilla(RLU) (Normalized To WT Mean) (mean of Exp 1-5, 24 h): 1 | HIF2α transcriptional activity, Firefly(RLU)/Renilla(RLU) (Normalized to WT Mean) (Exp 1, 24 h): 0.6881 | HIF2α transcriptional activity, Firefly(RLU)/Renilla(RLU) (Normalized to WT Mean) (Exp 2, 24 h): 1.449 | HIF2α transcriptional activity, Firefly(RLU)/Renilla(RLU) (Normalized to WT Mean) (Exp3, 24 h): 0.8624 | HIF2α transcriptional activity, Firefly(RLU)/Renilla(RLU) (Normalized to WT Mean) (mean of Exp 1-3, 24 h): 1

HIF2a-Y532C: Class 1 HIF2α mutant expressed from plasmid in HEK293A cells
HIF2α transcriptional activity, Firefly(RLU)/Renilla(RLU) (Normalized To WT Mean) (Exp 1, 24 h): 1.579 | HIF2α transcriptional activity, Firefly(RLU)/Renilla(RLU) (Normalized To WT Mean) (Exp 2, 24 h): 1.687 | HIF2α transcriptional activity, Firefly(RLU)/Renilla(RLU) (Normalized To WT Mean) (Exp 3, 24 h): 2.039 | HIF2α transcriptional activity, Firefly(RLU)/Renilla(RLU) (Normalized To WT Mean) (Exp 4, 24 h): 3.004 | HIF2α transcriptional activity, Firefly(RLU)/Renilla(RLU) (Normalized To WT Mean) (Exp 5, 24 h): 1.351 | HIF2α transcriptional activity, Firefly(RLU)/Renilla(RLU) (Normalized To WT Mean) (mean of Exp 1-5, 24 h): 1.932

HIF2a-Y532H: Class 2 HIF2α mutant expressed from plasmid in HEK293A cells
HIF2α transcriptional activity, Firefly(RLU)/Renilla(RLU) (Normalized To WT Mean) (Exp 1, 24 h): 1.505 | HIF2α transcriptional activity, Firefly(RLU)/Renilla(RLU) (Normalized To WT Mean) (Exp 2, 24 h): 1.636 | HIF2α transcriptional activity, Firefly(RLU)/Renilla(RLU) (Normalized To WT Mean) (Exp 3, 24 h): 0.8256 | HIF2α transcriptional activity, Firefly(RLU)/Renilla(RLU) (Normalized To WT Mean) (Exp 4, 24 h): 1.673 | HIF2α transcriptional activity, Firefly(RLU)/Renilla(RLU) (Normalized To WT Mean) (Exp 5, 24 h): 0.9402 | HIF2α transcriptional activity, Firefly(RLU)/Renilla(RLU) (Normalized To WT Mean) (mean of Exp 1-5, 24 h): 1.316
